Laboratory results from patent US9644000B2, “V1a receptor agonists” (Ferring B.V., priority 2012, dated 2017).
*1 amine or outer side, *2 acyl side, *3 side chain or, on linkers, in order; H or OH if unused. Where a SMILES comes first, the peptide text is derived from it. Bridges are numbered along the chain shown (N, C = ends). Roman numbers before positions name the chains, in order. [ ]: non-standard residue; d: D form. The star is where a group is joined. d(isoGln) = NC(=O)[C@@H](CCC(=O)[*:2])N[*:1]; isoGln = NC(=O)[C@H](CCC(=O)[*:2])N[*:1]; d(εLys) = N[C@H](CCCCN[*:1])C(=O)[*:2]; Aad = N[C@@H](CCCC(=O)O)C(=O)O; Cit = NC(=O)NCCC[C@H](N)C(=O)O; Dab = NCC[C@H](N)C(=O)O; PhAc = O=C(Cc1ccccc1)*

Experiments:
[1] = biological target: T1, human V1aR (Homo sapiens, UniProt P37288); assay: FLIPR calcium agonist assay in HEK-flpin cells expressing the vasopressin V1a receptor; format: cell-based
T1 construct: expressed in transfected cells
T1 sequence (P37288 whole entry): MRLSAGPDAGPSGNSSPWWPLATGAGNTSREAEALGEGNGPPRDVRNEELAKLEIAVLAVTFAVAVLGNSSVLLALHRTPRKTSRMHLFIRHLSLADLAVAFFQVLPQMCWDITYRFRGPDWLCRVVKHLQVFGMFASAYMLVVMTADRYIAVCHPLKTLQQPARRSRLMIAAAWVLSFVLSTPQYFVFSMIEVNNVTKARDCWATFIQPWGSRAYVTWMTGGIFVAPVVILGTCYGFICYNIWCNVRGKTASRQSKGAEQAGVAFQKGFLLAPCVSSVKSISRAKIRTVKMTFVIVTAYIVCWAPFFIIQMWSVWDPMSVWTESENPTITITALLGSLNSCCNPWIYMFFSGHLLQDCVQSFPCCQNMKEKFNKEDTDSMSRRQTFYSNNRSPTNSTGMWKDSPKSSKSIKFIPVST
Method: Efficacy (% MPE) is also determined as the percentage of maximal possible effect. This agonist assay utilizes cells from a stable cell line (HEK-flpin) expressing the vasopressin V1a receptor. Intracellular calcium increase in response to agonist is measured through real-time fluorescence of an intracellular calcium-sensitive dye. Cells are exposed to varying concentrations of test agonist compounds whereupon release of intracellular calcium is measured to determine the agonist potency and efficacy.
The cell line stably expresses the lacZ-Zeocin™ fusion gene and is designed for use with the Flp-In™ expression vector containing the gene of interest and the Flp recombinase expression plasmid, pOG44. The cell line contains a single integrated Flp Recombination Target (FRT) site from pFRT/lacZeo or pFRT/lacZeo2. To generate the HEK-flpin cell line stably expressing the human V1aR, the cells were co-transfected with the Flp-In™ expression vector containing the gene of interest (pcDNA5/FRT-hV1aR) and the Flp recombinase expression plasmid pOG44. Flp recombinase mediates insertion of the Flp-In™ expression vector into the genome at the integrated FRT site through site-specific DNA recombination. Stable cell lines expressing the hV1aR from the Flp-In™ expression vector can be generated by selection using hygromycin B. See Life Technologies/Invitrogen manual, Growth and Maintenance of Flp-In™ Cell Lines, Version E, published Feb.
Efficacy of this compound was set to be 100%. A stock solution of 5 mM was made up in DMSO and stored at −20° C.
HEK-flpin-hV1aR, cmcqV1aR, dV1aR and pV1aR cells were maintained in DMEM containing 10% (v/v) FBS-HI, 4 mM GlutaMAX™-I, 25 μg/mL Hygromycin B at 37° C. under 5% CO2 in a humidified atmosphere. […]
The cell plates were transferred to FLIPR Tetra, along with a 384 well V-bottom plate pre-loaded with half-log concentrations of test compounds at 10× final test concentrations. […] The agonist-induced fluorescence signal was then measured for 180 s with initial 120 readings at 1-second intervals followed by 20 readings at 3-second intervals. […]

[2] = HRS1 patients; cited from earlier work

SMILES: CC[C@H](C)[C@@H]1NC(=O)[C@H](Cc2ccccc2)NC(=O)[C@@H](N)CSSC[C@@H](C(=O)N2CCC[C@H]2C(=O)N[C@@H](CCNC(=O)[C@H](N)CCCCNC(=O)CC[C@H](NC(=O)[C@H](CCCNC(=N)N)NC(=O)[C@@H]2CCCN2C(=O)[C@H](C)NC(=O)[C@H](CC(N)=O)NC(=O)[C@H](CCC(N)=O)NC(=O)[C@H](Cc2ccccc2)NC(=O)[C@@H](Cc2ccc(OC)cc2)NC(=O)Cc2ccccc2)C(N)=O)C(=O)NCC(N)=O)NC(=O)[C@H](CC(N)=O)NC(=O)[C@H](CCCC(N)=O)NC1=O [Compound 62] (I: H-CFI[Aad](NH2)NCP[Dab]G-NH2 / II: PhAc-[dY](Me)FQNAPR[isoGln][d(εLys)]; disulfide I:1-I:6; amide I:8-II:C)
- Efficacy Avg. (% MPE, as compared to AVP) ([1]; HEK-flpin-hV1aR cells, AVP efficacy set to 100%): 31%

SMILES: CC[C@H](C)[C@@H]1NC(=O)[C@H](Cc2ccccc2)NC(=O)[C@@H](N)CSSC[C@@H](C(=O)N2CCC[C@H]2C(=O)N[C@@H](CCNC(=O)[C@H](N)CCCCNC(=O)CC[C@H](NC(=O)[C@H](CCCNC(=N)N)NC(=O)[C@@H]2CCCN2C(=O)[C@H](CCN)NC(=O)[C@H](CC(N)=O)NC(=O)[C@H](CCC(N)=O)NC(=O)[C@H](Cc2ccccc2)NC(=O)[C@@H](Cc2ccc(OC)cc2)NC(=O)Cc2ccccc2)C(N)=O)C(=O)NCC(N)=O)NC(=O)[C@H](CC(N)=O)NC(=O)[C@H](CC(N)=O)NC1=O [Compound 59] (I: H-CFINNCP[Dab]G-NH2 / II: PhAc-[dY](Me)FQN[Dab]PR[isoGln][d(εLys)]; disulfide I:1-I:6; amide I:8-II:C)
- EC50 [1]: 1.7 nM

SMILES: NCCCC[C@H](NC(=O)[C@@H]1CCCN1C(=O)[C@@H]1CSSC[C@H](NC(=O)CNC(=O)CNC(=O)CN)C(=O)N[C@@H](Cc2ccc(O)cc2)C(=O)N[C@@H](Cc2ccccc2)C(=O)N[C@@H](CCC(N)=O)C(=O)N[C@@H](CC(N)=O)C(=O)N1)C(=O)NCC(N)=O [Terlipressin, terlipressin] (H-GGGCYFQNCPKG-NH2; disulfide 4-9)
- patients in whom renal failure is reversed [2]: 30-40%

SMILES: CC[C@H](C)[C@@H]1NC(=O)[C@H](Cc2ccccc2)NC(=O)[C@@H](N)CSSC[C@@H](C(=O)N2CCC[C@H]2C(=O)N[C@@H](CCNC(=O)[C@H](N)CCCCNC(=O)CC[C@@H](NC(=O)[C@H](CCCNC(=N)N)NC(=O)[C@@H]2CCCN2C(=O)[C@H](CCCNC(N)=O)NC(=O)[C@H](CC(N)=O)NC(=O)[C@H](CCC(N)=O)NC(=O)[C@H](Cc2ccccc2)NC(=O)[C@@H](Cc2ccc(OC)cc2)NC(=O)Cc2ccccc2)C(N)=O)C(=O)NCC(N)=O)NC(=O)[C@H](CC(N)=O)NC(=O)[C@H](CCC(N)=O)NC1=O [Compound 55] (I: H-CFIQNCP[Dab]G-NH2 / II: PhAc-[dY](Me)FQN[Cit]PR[d(isoGln)][d(εLys)]; disulfide I:1-I:6; amide I:8-II:C)
- EC50 [1]: 1.7 nM
